Data published in US10980813B2, “Antifungal composition” (SEED RESEARCH INSTITUTE CO., LTD., priority 2017, dated 2021).
In brackets after ≈: the same amount, converted by molar mass.

Assays:
Experiment in all cases: Antifungal activity, MIC by disc (diffusion) method
[1] = tested on: C. parapsilosis; format: cell-based, Candida parapsilosis; conditions: Lodderomyces parapsilosis, YMG agar, 24 hr at 28° C., read-out: MIC (minimum inhibitory concentration) C. parapsilosis
Description: (§1) Measurement Method of Antifungal Activity in Various Compounds
(§2) The minimum inhibitory concentration (MIC) was measured by a disc method (diffusion method). The disc method is one kind of the diffusion method, and is a method in which filter paper (disc) impregnated with an antifungal substance at a given concentration is placed on an agar medium (test plate) coated with a test bacterium and cultivated. The disc absorbs water in the medium, diffuses the antifungal substance and forms a given concentration gradient. As a result, the test bacterium forms a growth inhibition zone (circle) in the periphery of the disc, and the level of sensitivity to the antifungal substance is determined from the diameter of the inhibition circle.
(§3) Using the aforementioned method, MIC of various compounds was measured.
(§4) i: In a 100 mL flask, 20 mL of YMG or Mueller Hinton medium is produced.
(§5) ii: A loopful of the test bacterium is dissolved in the medium.
(§6) iii: The medium is cultured at 200 rpm for 24 hr in a rotary shaker set to 28° C.
(§7) i: In a 300 mL flask, 100 mL of YMG or Mueller Hinton agar medium (low melting point agar) is produced.
(§8) ii: After cooling to 37° C.-40° C., preculture medium (1 mL) is added and the mixture is agitated.
(§9) iii: The mixture is dispensed to a square petri dish (size: 100*150*17 mm) by 20 mL each.
(§10) iv: The dish is stood at room temperature until the agar is solidified.
(§11) i: The compound is diluted in ½ dilution series in 10 stages (timely changed according to compound), 50 μL of solution/pulp at each dilution stage is produced, the organic solvent is dried at room temperature and placed on a test plate.
(§12) ii: After culturing T. rubrum for 48 hr and other test bacteria for 24 hr at 28° C. in an incubator, the size of the inhibition circle was measured.
(§13) The medium composition for culture which was used for the aforementioned preculture is shown below.
(§14) [Medium Compositions for Preculture and Test Plate]
(§15) <<YMG Medium>>: For Fungus
(§16) Agar, powder 0.8% * added only when producing test plate

[2] = tested on: A. fumigatus; format: cell-based; conditions: Aspergillus fumigatus, YMG agar, 24 hr at 28° C., read-out: MIC (minimum inhibitory concentration) A. fumigatus
Description: as §1, §2, §3, §4, §5, §6, §7, §8, §9, §10, §11, §12, §13, §14, §15, §16

[3] = tested on: Saccharomyces; format: cell-based; conditions: YMG agar, 24 hr at 28° C., read-out: MIC (minimum inhibitory concentration) Saccharomyces
Description: as §1, §2, §3, §4, §5, §6, §7, §8, §9, §10, §11, §12, §13, §14, §15, §16

[4] = tested on: T. mentagrophytes; format: cell-based; conditions: Trichophyton mentagrophytes, YMG agar, 24 hr at 28° C., read-out: MIC (minimum inhibitory concentration) T. mentagrophytes
Description: as §1, §2, §3, §4, §5, §6, §7, §8, §9, §10, §11, §12, §13, §14, §15, §16

[5] = tested on: T. rubrum; format: cell-based; conditions: Trichophyton rubrum, YMG agar, 48 hr at 28° C., read-out: MIC (minimum inhibitory concentration) T. rubrum
Description: as §1, §2, §3, §4, §5, §6, §7, §8, §9, §10, §11, §12, §13, §14, §15, §16

Compound | MIC [1] [µg/mL] | MIC [2] [µg/mL] | MIC [3] [µg/mL] | MIC [4] [µg/mL] | MIC [5] [µg/mL]
O=S1(=O)N=CC(CCc2ccc(F)cc2)=N1 [I-4c] | 8 (≈ 33.3 µM) | 8 (≈ 33.3 µM) | 8 (≈ 33.3 µM) | 2 (≈ 8.32 µM) | 2 (≈ 8.32 µM)
O=S1(=O)N=CC(CCc2ccc(Cl)cc2)=N1 [I-4d] | 8 (≈ 31.2 µM) | 8 (≈ 31.2 µM) | 8 (≈ 31.2 µM) | 2 (≈ 7.79 µM) | 2 (≈ 7.79 µM)
O=S1(=O)N=Cc2nccn21 [I-5a] | 8 (≈ 50.9 µM) | 8 (≈ 50.9 µM) | 8 (≈ 50.9 µM) | 2 (≈ 12.7 µM) | 2 (≈ 12.7 µM)
O=S1(=O)N=Cc2cccn21 [I-5b] | 16 (≈ 102 µM) | 16 (≈ 102 µM) | 16 (≈ 102 µM) | 4 (≈ 25.6 µM) | 4 (≈ 25.6 µM)
O=S1(=O)N=CC2=COc3ccccc3C2=N1 [I-6a] | 4 (≈ 17.1 µM) | 4 (≈ 17.1 µM) | 4 (≈ 17.1 µM) | 1 (≈ 4.27 µM) | 1 (≈ 4.27 µM)
O=S1(=O)N=CC2=COc3ccc(F)cc3C2=N1 [I-6b] | 4 (≈ 15.9 µM) | 4 (≈ 15.9 µM) | 4 (≈ 15.9 µM) | 1 (≈ 3.96 µM) | 1 (≈ 3.96 µM)
O=S1(=O)N=CC2=COc3ccc(Cl)cc3C2=N1 [I-6c] | 4 (≈ 14.9 µM) | 4 (≈ 14.9 µM) | 4 (≈ 14.9 µM) | 1 (≈ 3.72 µM) | 1 (≈ 3.72 µM)
O=S1(=O)Oc2ccc(F)cc2C2ON21 (centres unmarked) [II-1a] | 4 (≈ 18.4 µM) | 4 (≈ 18.4 µM) | 4 (≈ 18.4 µM) | 1 (≈ 4.6 µM) | 1 (≈ 4.6 µM)
O=S1(=O)Oc2ccc(Cl)cc2C2ON21 (centres unmarked) [II-1b] | 4 (≈ 17.1 µM) | 4 (≈ 17.1 µM) | 4 (≈ 17.1 µM) | 1 (≈ 4.28 µM) | 1 (≈ 4.28 µM)
O=S1(=O)Oc2ccc(Br)cc2C2ON21 (centres unmarked) [II-1c] | 4 (≈ 14.4 µM) | 4 (≈ 14.4 µM) | 4 (≈ 14.4 µM) | 1 (≈ 3.6 µM) | 1 (≈ 3.6 µM)
COc1ccc2c(c1)C1ON1S(=O)(=O)O2 (centres unmarked) [II-1d] | 8 (≈ 34.9 µM) | 8 (≈ 34.9 µM) | 8 (≈ 34.9 µM) | 2 (≈ 8.73 µM) | 2 (≈ 8.73 µM)
O=[N+]([O-])c1ccc2c(c1)C1ON1S(=O)(=O)O2 (centres unmarked) [II-1e] | 4 (≈ 16.4 µM) | 4 (≈ 16.4 µM) | 4 (≈ 16.4 µM) | 1 (≈ 4.1 µM) | 1 (≈ 4.1 µM)
COC(=O)c1ccc2c(c1)C1ON1S(=O)(=O)O2 (centres unmarked) [II-1f] | 4 (≈ 15.6 µM) | 4 (≈ 15.6 µM) | 4 (≈ 15.6 µM) | 1 (≈ 3.89 µM) | 1 (≈ 3.89 µM)
N#Cc1ccc2c(c1)C1ON1S(=O)(=O)O2 (centres unmarked) [II-1g] | 4 (≈ 17.8 µM) | 4 (≈ 17.8 µM) | 4 (≈ 17.8 µM) | 1 (≈ 4.46 µM) | 1 (≈ 4.46 µM)
O=S1(=O)Oc2c(Cl)cc(Cl)cc2C2ON21 (centres unmarked) [II-1h] | 4 (≈ 14.9 µM) | 4 (≈ 14.9 µM) | 4 (≈ 14.9 µM) | 1 (≈ 3.73 µM) | 1 (≈ 3.73 µM)
O=[N+]([O-])c1cc(Cl)cc2c1OS(=O)(=O)N1OC21 (centres unmarked) [II-1i] | 4 (≈ 14.4 µM) | 4 (≈ 14.4 µM) | 4 (≈ 14.4 µM) | 1 (≈ 3.59 µM) | 1 (≈ 3.59 µM)
CC12ON1S(=O)(=O)Oc1ccccc12 (centres unmarked) [II-1j] | 8 (≈ 37.5 µM) | 8 (≈ 37.5 µM) | 8 (≈ 37.5 µM) | 2 (≈ 9.38 µM) | 2 (≈ 9.38 µM)
CC12ON1S(=O)(=O)Nc1ccccc12 (centres unmarked) [II-1k] | 8 (≈ 37.7 µM) | 8 (≈ 37.7 µM) | 8 (≈ 37.7 µM) | 2 (≈ 9.42 µM) | 2 (≈ 9.42 µM)
O=S1(=O)Nc2ccc(Cl)cc2C2(c3ccccc3)ON21 (centres unmarked) [II-1l] | 8 (≈ 25.9 µM) | 8 (≈ 25.9 µM) | 8 (≈ 25.9 µM) | 2 (≈ 6.48 µM) | 2 (≈ 6.48 µM)

Compound | MIC [1] [µg/mL] | MIC [2] [µg/mL] | MIC [3] [µg/mL] | MIC [4] [µg/mL] | MIC [5] [µg/mL]
CC1=C(C)C2(C)ON2S(=O)(=O)O1 (centres unmarked) [II-2a] | 8 (≈ 41.8 µM) | 8 (≈ 41.8 µM) | 8 (≈ 41.8 µM) | 2 (≈ 10.5 µM) | 2 (≈ 10.5 µM)
CC1=CC2(C)ON2S(=O)(=O)N1 (centres unmarked) [II-2b] | 16 (≈ 90.8 µM) | 16 (≈ 90.8 µM) | 16 (≈ 90.8 µM) | 2 (≈ 11.4 µM) | 2 (≈ 11.4 µM)
CC1=CC2(c3ccccc3)ON2S(=O)(=O)N1 (centres unmarked) [II-2c] | 8 (≈ 33.6 µM) | 8 (≈ 33.6 µM) | 8 (≈ 33.6 µM) | 2 (≈ 8.39 µM) | 2 (≈ 8.39 µM)
CC1=C(C)C2(c3ccccc3)ON2S(=O)(=O)N1 (centres unmarked) [II-2d] | 8 (≈ 31.7 µM) | 8 (≈ 31.7 µM) | 8 (≈ 31.7 µM) | 2 (≈ 7.93 µM) | 2 (≈ 7.93 µM)
CC1OS(=O)(=O)N2OC12C (centres unmarked) [II-3a] | 4 (≈ 24.2 µM) | 4 (≈ 24.2 µM) | 4 (≈ 24.2 µM) | 2 (≈ 12.1 µM) | 2 (≈ 12.1 µM)
CCC1OS(=O)(=O)N2OC12CC (centres unmarked) [II-3b] | 4 (≈ 20.7 µM) | 4 (≈ 20.7 µM) | 4 (≈ 20.7 µM) | 2 (≈ 10.4 µM) | 2 (≈ 10.4 µM)
O=S1(=O)OCC2(c3ccccc3)ON21 (centres unmarked) [II-3c] | 8 (≈ 37.5 µM) | 8 (≈ 37.5 µM) | 8 (≈ 37.5 µM) | 2 (≈ 9.38 µM) | 2 (≈ 9.38 µM)
O=S1(=O)OCC2(c3ccc(Cl)cc3)ON21 (centres unmarked) [II-3d] | 8 (≈ 32.3 µM) | 8 (≈ 32.3 µM) | 8 (≈ 32.3 µM) | 2 (≈ 8.08 µM) | 2 (≈ 8.08 µM)
CCCCCCCCN1CC2(c3ccccc3)ON2S1(=O)=O (centres unmarked) [II-3e] | 8 (≈ 24.7 µM) | 8 (≈ 24.7 µM) | 8 (≈ 24.7 µM) | 2 (≈ 6.16 µM) | 2 (≈ 6.16 µM)
CC1=NS(=O)(=O)N2OC12 (centres unmarked) [II-4a] | 8 (≈ 54 µM) | 8 (≈ 54 µM) | 8 (≈ 54 µM) | 2 (≈ 13.5 µM) | 2 (≈ 13.5 µM)
CC1=NS(=O)(=O)N2OC12C (centres unmarked) [II-4b] | 16 (≈ 98.7 µM) | 16 (≈ 98.7 µM) | 16 (≈ 98.7 µM) | 4 (≈ 24.7 µM) | 4 (≈ 24.7 µM)
O=S1(=O)N=C(CCc2ccc(F)cc2)C2ON21 (centres unmarked) [II-4c] | 8 (≈ 31.2 µM) | 8 (≈ 31.2 µM) | 8 (≈ 31.2 µM) | 2 (≈ 7.8 µM) | 2 (≈ 7.8 µM)
O=S1(=O)N=C(CCc2ccc(Cl)cc2)C2ON21 (centres unmarked) [II-4d] | 8 (≈ 29.3 µM) | 8 (≈ 29.3 µM) | 8 (≈ 29.3 µM) | 2 (≈ 7.33 µM) | 2 (≈ 7.33 µM)
O=S1(=O)N2OC2c2nccn21 (centres unmarked) [II-5a] | 8 (≈ 46.2 µM) | 8 (≈ 46.2 µM) | 8 (≈ 46.2 µM) | 2 (≈ 11.6 µM) | 2 (≈ 11.6 µM)
O=S1(=O)N2OC2c2cccn21 (centres unmarked) [II-5b] | 16 (≈ 92.9 µM) | 16 (≈ 92.9 µM) | 16 (≈ 92.9 µM) | 4 (≈ 23.2 µM) | 4 (≈ 23.2 µM)
O=S1(=O)N=C2C(=COc3ccccc32)C2ON21 (centres unmarked) [II-6a] | 4 (≈ 16 µM) | 4 (≈ 16 µM) | 4 (≈ 16 µM) | 1 (≈ 4 µM) | 1 (≈ 4 µM)
O=S1(=O)N=C2C(=COc3ccc(F)cc32)C2ON21 (centres unmarked) [II-6b] | 4 (≈ 14.9 µM) | 4 (≈ 14.9 µM) | 4 (≈ 14.9 µM) | 1 (≈ 3.73 µM) | 1 (≈ 3.73 µM)
O=S1(=O)N=C2C(=COc3ccc(Cl)cc32)C2ON21 (centres unmarked) [II-6c] | 4 (≈ 14.1 µM) | 4 (≈ 14.1 µM) | 4 (≈ 14.1 µM) | 1 (≈ 3.51 µM) | 1 (≈ 3.51 µM)
